Here are results for nine compounds from PubChem BioAssay (NCI).

Among the test systems are CCRF-CEM leukemia; NCI-H23 lung; A549 NSCLC; LOX IMVI melanoma; HS 578T breast; HT29 colon; A498 renal; ACHN renal; SNB-75 CNS; SK-MEL-2 melanoma.
Holding throughout (assay): NCI-60 cell line screen, 48 h

Where “and” joins values, the source holds several entries; their conditions need not be identical. Equal values may be shown once.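 How tested: cells in 96-well plates exposed to compound for 48 hours at five concentrations. GI50 marks 50% less growth. At the TGI there is no net growth.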 Bounds are passed on as bounds.

Take `C#CCN(Cc1nc2cc(C(F)(F)F)ccc2nc1-c1ccccc1)c1ccc(F)cc1`: the GI50 is 27.1 µM in the test with CCRF-CEM leukemia; above 100 µM in the test with NCI-H23 lung; 20.4 µM in the test on A549 NSCLC; 30.5 µM in the test with LOX IMVI melanoma; 34.7 µM with HS 578T breast; 34.9 µM in the test on HT29 colon. In addition, the results for the GI50 in the test on A498 renal, with ACHN renal and in the test on SNB-75 CNS were 38 µM, 36 µM and 90.3 µM, respectively. Further, the TGI in the test with CCRF-CEM leukemia was above 100 µM; in the test on NCI-H23 lung, above 100 µM; in the test on A549 NSCLC it was 60.9 µM; with LOX IMVI melanoma, 97.8 µM; with HS 578T breast, above 100 µM; in the test with HT29 colon it was above 100 µM. Further, the TGI in the test with A498 renal was 92.8 µM; in the test on ACHN renal it was above 100 µM; with SNB-75 CNS, above 100 µM.
Consider `C[C@@]1(O)CCC[C@H]1n1c(=O)c(C(F)F)cc2cnc(NC3CCN(S(C)(=O)=O)CC3)nc21`, for which the GI50 is 1.5 µM in the test with CCRF-CEM leukemia; 1.43 µM in the test on NCI-H23 lung; 1.66 µM in the test with A549 NSCLC; 2.28 µM with SK-MEL-2 melanoma; 1.28 µM with LOX IMVI melanoma; 1.48 µM with HS 578T breast. In addition, the GI50 in the test on HT29 colon is 1.27 µM; in the test on ACHN renal, 1.37 µM; in the test on SNB-75 CNS, 0.223 µM. Besides, the TGI in the test on CCRF-CEM leukemia is above 100 µM; in the test with NCI-H23 lung, 6.69 µM; in the test with A549 NSCLC it was above 100 µM; in the test on SK-MEL-2 melanoma, 6.34 µM; with LOX IMVI melanoma it was above 100 µM; in the test on HS 578T breast it was 7.28 µM. The values for the TGI in the test on HT29 colon, in the test on ACHN renal and in the test with SNB-75 CNS were above 100 µM, above 100 µM and 2.38 µM, respectively.
Regarding `CCN(CC)CCOc1ccc(Cc2ccccc2)cc1`, the GI50 with NCI-H23 lung was 33.4 µM; in the test with A549 NSCLC it was 49.8 µM; in the test on SK-MEL-2 melanoma, 13.9 µM; in the test on LOX IMVI melanoma it was 15.2 µM; with HS 578T breast it was 13.6 µM; in the test on HT29 colon, 12.3 µM. For the same compound, the GI50 in the test on A498 renal was 19.3 µM; in the test on ACHN renal it was 47.2 µM; with SNB-75 CNS, 19 µM. The TGI with NCI-H23 lung is above 100 µM; with A549 NSCLC it was above 100 µM; in the test on SK-MEL-2 melanoma it was 50.5 µM; with LOX IMVI melanoma, 33.3 µM; in the test on HS 578T breast it was 52.4 µM; in the test with HT29 colon, 33.9 µM. Moreover, the TGI in the test with A498 renal was 87 µM; in the test on ACHN renal, above 100 µM; with SNB-75 CNS it was 94.9 µM.
As to `O=c1c(-c2nc3ccccc3[nH]2)cc2ccccc2n1Cc1cn(Cc2ccccc2Cl)nn1`, the GI50 was 8.58 µM in the test with CCRF-CEM leukemia; 3.43 µM in the test on NCI-H23 lung; 2.05 µM in the test on A549 NSCLC; 3.07 µM with SK-MEL-2 melanoma; 1.93 µM in the test with HS 578T breast; 2.2 µM in the test with HT29 colon. Moreover, the GI50 was 1.71 µM in the test on ACHN renal and 1.36 µM in the test on SNB-75 CNS. Besides, the TGI is above 100 µM in the test with CCRF-CEM leukemia; 24.3 µM in the test with NCI-H23 lung; 4.38 µM in the test on A549 NSCLC; 10.8 µM with SK-MEL-2 melanoma; 5.91 µM with HS 578T breast; 4.7 µM in the test on HT29 colon. The TGI in the test on ACHN renal stood at 3.27 µM; in the test with SNB-75 CNS, 3.2 µM.
Take `COc1cc2c(cc1OC)-c1ncc3cc(OC)c(OC)c(OC)c3c1C2`: the GI50 is 32.1 µM in the test on A549 NSCLC; 21.7 µM with SK-MEL-2 melanoma; 16.8 µM in the test on LOX IMVI melanoma; 4.11 µM in the test on HS 578T breast; 32 µM in the test with ACHN renal; 72 µM in the test on SNB-75 CNS. For the same compound, the TGI is above 100 µM in the test on A549 NSCLC; 73.9 µM in the test with SK-MEL-2 melanoma; 35.8 µM in the test on LOX IMVI melanoma; 27.2 µM with HS 578T breast; above 100 µM in the test with ACHN renal; above 100 µM in the test with SNB-75 CNS.
On to `COc1c(N2CCN(CN3C(=O)C(=O)c4ccccc43)C(C)C2)c(F)cc2c(=O)c(C(=O)O)cn(C3CC3)c12` (stereo unspecified), for which the GI50 is above 100 µM in the test with NCI-H23 lung; above 100 µM in the test on A549 NSCLC; above 100 µM with SK-MEL-2 melanoma; 71.2 µM in the test on LOX IMVI melanoma; 91.2 µM in the test with HS 578T breast; 47.3 µM with HT29 colon. The GI50 in the test with A498 renal was 33.6 µM; in the test with ACHN renal it was above 100 µM; in the test on SNB-75 CNS, above 100 µM. Besides, the TGI with NCI-H23 lung, in the test with A549 NSCLC, in the test on SK-MEL-2 melanoma, in the test on LOX IMVI melanoma, with HS 578T breast and in the test on HT29 colon was above 100 µM in each case. Moreover, the TGI with A498 renal, in the test on ACHN renal and with SNB-75 CNS was above 100 µM in each case.
As for `CN1CCN(c2ccc(-c3cccc(CN4CCOCC4)c3)cc2NC(=O)c2c[nH]c(=O)cc2C(F)(F)F)CC1`, the GI50 with CCRF-CEM leukemia was 58.8 µM; in the test with NCI-H23 lung it was above 100 µM; with A549 NSCLC it was 53.5 µM; with SK-MEL-2 melanoma, 27.3 µM; in the test with LOX IMVI melanoma it was 25.1 µM; in the test with HS 578T breast it was 44.8 µM. In addition, the GI50 with HT29 colon was 17.9 µM; with ACHN renal, 40.4 µM; in the test on SNB-75 CNS, 13.6 µM. The TGI is above 100 µM with CCRF-CEM leukemia; above 100 µM with NCI-H23 lung; above 100 µM in the test with A549 NSCLC; 72 µM in the test on SK-MEL-2 melanoma; above 100 µM in the test on LOX IMVI melanoma; above 100 µM in the test with HS 578T breast. Also, the TGI is 58.3 µM in the test with HT29 colon, above 100 µM with ACHN renal and 99.8 µM with SNB-75 CNS.
For the compound `N#CC(C(=O)O)C(c1c(Cl)cccc1Cl)C(C#N)C(=O)O` (stereo unspecified), the TGI in the test on NCI-H23 lung, with A549 NSCLC, in the test with SK-MEL-2 melanoma, in the test on LOX IMVI melanoma, in the test with HS 578T breast and in the test with HT29 colon was above 100 µM in each case. In addition, the TGI with A498 renal and in the test on ACHN renal was above 100 µM each time.
Turning to `CSC1SCC2C(=O)N(C)C(C(C)C)C(=O)OCC(NC(=O)c3cnc4ccccc4n3)C(=O)NC(C)C(=O)N(C)C1C(=O)N(C)C(C(C)C)C(=O)OCC(NC(=O)c1cnc3ccccc3n1)C(=O)NC(C)C(=O)N2C` (stereo unspecified), the GI50 with CCRF-CEM leukemia, in the test with NCI-H23 lung, in the test with A549 NSCLC, in the test on LOX IMVI melanoma, in the test with HS 578T breast and with HT29 colon was below 0.001 µM in each case. Further, the GI50 in the test on A498 renal is below 0.001 µM; with ACHN renal it was < 0.001 µM and 0.00186 µM and 0.0075 µM. The TGI in the test on SK-MEL-2 melanoma was 0.00126 µM; in the test on HS 578T breast, 0.00282 µM and 0.00359 µM.
